Several values for one entry are separate records, joined by “and”; a condition that tells them apart may be missing. Identical values can stand only once.
Columns and labels:
DR1 Transgenic mice [1] = experiment: Oral (gavage) APL A12 suppression of CIA in DR1 transgenic mice; assay type: in vivo, mouse; settings: for arthritis severity: FIG. 1
DR4 mice = experiment: Suppression of immunity to CII and arthritis in DR4 mice; assay type: in vivo, mouse; settings: high-responder DR4 mice
Method: Assuming that CII263-270 was key to developing immunity to the intact CII molecule, a number of analog peptides where amino acids within this small segment were substituted with those found in the corresponding sites of nonarthritogenic type I collagen were prepared and tested. […] The APL A12 developed for this study has the following amino acid sequence: LGPKGQTGEBG[IAGNKGDQGPK]GEBGPA (SEQ ID NO: 3) where B=hydroxproline. The core determinant of human CII263-270 is bracketed. The underlined residues are those substituted to produce APL A12. The residues amino terminal and carboxy terminal to the core determinant is from the normal human CII sequence.

RA PBMC = experiment: Stability of HC Peptide 1 stored at 4° C., tested on IFNγ production by RA PBMC; assay type: cell-based, human
Method: Approximately 70% of the patients screened should have one or more of the RA shared epitope alleles. If the trend we saw in the small preliminary data sample holds true for the larger sample size, the majority of APL A12 responders will have one or more of the shared epitopes. […] Each month we will prepare a fresh stock solution of APL A12 dissolved in PBS, filter sterilized and stored at 4° C. APL A12 stored at 4° C. in solution retains it biologic activity for >30 days. A fresh solution of α1(II) will also be prepared each month and stored at 4° C. and handled using sterile technique.
HC Peptide 1 was dissolved in phosphate buffered saline and stored at 4° C. for up to five months and then tested and compared in vitro with freshly prepared HC Peptide 1 to inhibit IFNγ production by RA patients PBMC stimulated by α1(II).

DR1 Transgenic mice [2] = experiment: Acute toxicity study of HC Peptide 1 in DR1 transgenic mice; assay type: in vivo, mouse; settings: for Weight of Mice / Weight of Livers / Weight of Spleens: individual mice, HC Peptide 1 (100 μg) Fed; for Weight of Livers / Weight of Spleens: at sacrifice
Method: Eight DR1 transgenic mice (C57 BL/10 containing a human transgene for DR1) were studied in these acute toxicity studies. The four female litter mates were nine weeks old at the time the studies were initiated. Two female mice and two male mice were randomly assigned to the control group and two female and two male mice were randomly assigned to be treated with HC Peptide 1. Mice were gavaged once daily for seven days with 100 μl IV saline containing 100 μg HC Peptide1. Mice were weighed before treatment and every two days. Mice were examined daily for general healthy appearance, glossy coat, ruffling of hair, lethargy, ad lib behavior, shivering or vigor. At sacrifice on day 7, blood was collected for complete blood count and chemistries were performed by the Clinical Pathology Services, Charles River Laboratories, 251 Ballardvale Street, Wilmington, Mass. 01887. Food and water consumption were monitored in each cage. Liver and spleen were weighed at sacrifice of each mouse. Sections of liver, spleen, kidney, heart, lung, stomach, and small and large intestine, were placed in 10% formalin and processed for routine H and E sections by the Histology Laboratory at the Memphis VAMC. Mice were housed in an IACUC approved facility with 12 hours light and 12 hours darkness.
Changes in body weight over the six days mice were gavaged with 100× the human HC Peptide 1 dose were similar to mice gavaged with IV saline (See Table IX). Water and food consumption were similar between HC Peptide 1 treated and mice gavaged with IV saline (Table X). Upon sacrifice at day 7, the weight of livers and spleens were similar between mice gavaged with 100× the human dose of HC Peptide 1 and mice gavaged with IV saline (See Table XI). The complete blood counts (CBC) after 6 days gavage of DRB1*0401 transgenic mice with 100× the human HC Peptide 1 dose were similar to litter mates gavaged with IV saline. Plasma chemistries were similar in the […] transgenic mice gavaged with 100× the human dose of HC Peptide 1 compared to litter mates gavaged with IV saline.

FcεRIγ = FcεRIγ expression in DR1 TCR tg cells; assay type: cell-based, mouse; settings: DR1 TCR tg cells cultured with peptide 48 hours; FIG. 6
Method: In FIG. 6 it is shown that A12 treatment increases […] expression. In the graph with axis 610 for the percentage of the maximum, axis 615 for the number of occurrences on a log scale, line 620 is for A2, line 625 is for media alone, and line 630 is for A12. Splenocytes from DR1 TCR transgenic mice were cultured for 48 hours in the presence of A12 (dark grey line), A2 (black line) or media alone (light grey line). […] The cells cultured with A2 peptide are no different than unstimulated controls.
Finally, we examined the expression of FcεRIγ, a molecule known to associate with the TCR complex. In some circumstances, the TCR is rewired so that the FcRgamma chain assumes the function of the zeta chain. Therefore, the DR1 TCR tg cells were cultured with either A12, or A2, or media alone and stained with an antibody specific for the gamma chain of the FcεRIγ molecule.

[3] = Cage 1 Male (two mice), Days 1-2
[4] = Cage 1 Male (two mice), Days 3-4
[5] = Cage 1 Male (two mice), Days 5-6
[6] = Cage 1 Male (two mice), sum of Days 1-6 (unlabelled line)
[7] = Cage 3 Female (two mice), Days 1-2
[8] = Cage 3 Female (two mice), Days 3-4
[9] = Cage 3 Female (two mice), Days 5-6
[10] = Cage 3 Female (two mice), sum of Days 1-6 (unlabelled line)

LGPKGQTGEBGIAGAKGDQGPKGEBGPA [APL A12]
arthritis severity (DR1 Transgenic mice [1]; 10 μg gavaged 8 days over two weeks before CII immunization): significantly reduced
arthritis severity (DR1 Transgenic mice [1]; 50 μg gavaged 8 days over two weeks before CII immunization): significantly reduced
most effective dose (DR1 Transgenic mice [1]; given orally by gavage): 50 µg/day
development of arthritis induced by immunization with bovine CII (DR1 Transgenic mice [1]; low oral dose (10-50 μg), mice transgenic for human DR1): protects
CII induced arthritis (DR1 Transgenic mice [1]; mice bearing a transgene for human DR1): effective in reducing
immunity to CII and arthritis (DR4 mice): profoundly suppress
IFNγ Concentration in PBMC Supernatants (RA PBMC; A12 0.1 μg/ml + PBS, A12 stored at 4° C. 6 Days): 26 pg/mL
IFNγ Concentration in PBMC Supernatants (RA PBMC; A12 0.1 μg/ml + PBS, A12 stored at 4° C. 78 Days): 0 pg/mL
IFNγ Concentration in PBMC Supernatants (RA PBMC; A12 0.1 μg/ml + PBS, A12 stored at 4° C. 143 Days): 0 pg/mL
IFNγ Concentration in PBMC Supernatants (RA PBMC; A12 0.1 μg/ml + α1(II) 50 μg/ml, A12 stored at 4° C. 6 Days): 45 pg/mL
IFNγ Concentration in PBMC Supernatants (RA PBMC; A12 0.1 μg/ml + α1(II) 50 μg/ml, A12 stored at 4° C. 78 Days): 10 pg/mL
IFNγ Concentration in PBMC Supernatants (RA PBMC; A12 0.1 μg/ml + α1(II) 50 μg/ml, A12 stored at 4° C. 143 Days): 22 pg/mL
IFNγ Concentration in PBMC Supernatants (RA PBMC; A12 1 μg/ml + PBS, A12 stored at 4° C. 6 Days): 10 pg/mL
IFNγ Concentration in PBMC Supernatants (RA PBMC; A12 1 μg/ml + PBS, A12 stored at 4° C. 78 Days): 0 pg/mL
IFNγ Concentration in PBMC Supernatants (RA PBMC; A12 1 μg/ml + PBS, A12 stored at 4° C. 143 Days): 0 pg/mL
IFNγ Concentration in PBMC Supernatants (RA PBMC; A12 1 μg/ml + α1(II) 50 μg/ml, A12 stored at 4° C. 6 Days): 23 pg/mL
IFNγ Concentration in PBMC Supernatants (RA PBMC; A12 1 μg/ml + α1(II) 50 μg/ml, A12 stored at 4° C. 78 Days): 37 pg/mL
IFNγ Concentration in PBMC Supernatants (RA PBMC; A12 1 μg/ml + α1(II) 50 μg/ml, A12 stored at 4° C. 143 Days): 6 pg/mL
IFNγ Concentration in PBMC Supernatants (RA PBMC; A12 10 μg/ml + PBS, A12 stored at 4° C. 6 Days): 0 pg/mL
IFNγ Concentration in PBMC Supernatants (RA PBMC; A12 10 μg/ml + PBS, A12 stored at 4° C. 78 Days): 0 pg/mL
IFNγ Concentration in PBMC Supernatants (RA PBMC; A12 10 μg/ml + PBS, A12 stored at 4° C. 143 Days): 0 pg/mL
IFNγ Concentration in PBMC Supernatants (RA PBMC; A12 10 μg/ml + α1(II) 50 μg/ml, A12 stored at 4° C. 6 Days): 77 pg/mL
IFNγ Concentration in PBMC Supernatants (RA PBMC; A12 10 μg/ml + α1(II) 50 μg/ml, A12 stored at 4° C. 78 Days): 82 pg/mL
IFNγ Concentration in PBMC Supernatants (RA PBMC; A12 10 μg/ml + α1(II) 50 μg/ml, A12 stored at 4° C. 143 Days): 21 pg/mL
stability: ability to inhibit IFNγ production by α1(II) stimulated RA PBMC after storage (RA PBMC; dissolved in phosphate buffered saline, stored at 4° C. for up to 5 months): retained its ability to inhibit IFNγ production
time for which biologic activity is retained (RA PBMC; stored at 4° C. in solution (PBS)): > 30 days
Plasma chemistries (DR1 Transgenic mice [2]; 100× the human dose vs IV saline): similar
general appearance or behavior (DR1 Transgenic mice [2]; 100× the proposed highest human dose by gavage, compared to littermates gavaged with IV saline): no differences
Chow Consumed (DR1 Transgenic mice [2]; [3]): 13.3 GMS
Water Consumed (DR1 Transgenic mice [2]; [3]): 15 MI
Chow Consumed (DR1 Transgenic mice [2]; [4]): 10.5 GMS
Water Consumed (DR1 Transgenic mice [2]; [4]): 10 MI
Chow Consumed (DR1 Transgenic mice [2]; [5]): 14.4 GMS
Water Consumed (DR1 Transgenic mice [2]; [5]): 15 MI
Chow Consumed (DR1 Transgenic mice [2]; [6]): 38.2 GMS
Water Consumed (DR1 Transgenic mice [2]; [6]): 40 MI
Chow Consumed (DR1 Transgenic mice [2]; [7]): 15.7 GMS
Water Consumed (DR1 Transgenic mice [2]; [7]): 12.5 MI
Chow Consumed (DR1 Transgenic mice [2]; [8]): 14.2 GMS
Water Consumed (DR1 Transgenic mice [2]; [8]): 9.5 MI
Chow Consumed (DR1 Transgenic mice [2]; [9]): 15.3 GMS
Water Consumed (DR1 Transgenic mice [2]; [9]): 13 MI
Chow Consumed (DR1 Transgenic mice [2]; [10]): 45.2 GMS
Water Consumed (DR1 Transgenic mice [2]; [10]): 35 MI
Weight of Mice (DR1 Transgenic mice [2]; Day 2, female mice): 21.6 GMS and 19.4 GMS
Weight of Mice (DR1 Transgenic mice [2]; Day 2, male mice): 22.4 GMS and 21.0 GMS
Weight of Mice (DR1 Transgenic mice [2]; Day 4, female mice): 21.0 GMS and 18.6 GMS
Weight of Mice (DR1 Transgenic mice [2]; Day 4, male mice): 21.6 GMS and 20.3 GMS
Weight of Mice (DR1 Transgenic mice [2]; Day 6, female mice): 21.9 GMS and 19.3 GMS
Weight of Mice (DR1 Transgenic mice [2]; Day 6, male mice): 22.7 GMS and 20.9 GMS
Weight of Mice (DR1 Transgenic mice [2]; Time 0, female mice): 21.6 GMS and 18.7 GMS
Weight of Mice (DR1 Transgenic mice [2]; Time 0, male mice): 22.4 GMS and 20.8 GMS
Weight of Livers (DR1 Transgenic mice [2]; female mice): 0.99 GMS and 0.87 GMS
Weight of Spleens (DR1 Transgenic mice [2]; female mice): 0.065 GMS and 0.07 GMS
Weight of Livers (DR1 Transgenic mice [2]; male mice): 1.14 GMS and 0.9 GMS
Weight of Spleens (DR1 Transgenic mice [2]; male mice): 0.09 GMS and 0.06 GMS
weight of livers and spleens (DR1 Transgenic mice [2]; sacrifice at day 7, 100× the human dose vs IV saline): similar
Water and food consumption (DR1 Transgenic mice [2]; vs mice gavaged with IV saline): similar
FcR gamma chain (FcεRIγ) expression (FcεRIγ): significant increase
